# Reference: publication PMC4956231, “Molecular Mechanisms for Drug Hypersensitivity Induced by the Malaria Parasite’s Chloroquine Resistance Transporter” (PLoS Pathogens, 2016)
# Tests used:
# [1] = test system: P. falciparum line 106/1^76I,369F; details: 106/1^76I,369F (76I,369F-PfCRT^K1); IC50 in line divided by IC50 in drug-sensitive reference strain; cited from earlier work
# P. falciparum 106/1 = details: 106/1 (76K-PfCRT^K1); IC50 in line divided by IC50 in drug-sensitive reference strain; cited from earlier work
# PfCRT^K1 = details: oocytes; cited from earlier work
# [2] = test system: P. falciparum line 106/1^76I,352K; details: 106/1^76I,352K (76I,352K-PfCRT^K1); IC50 in line divided by IC50 in drug-sensitive reference strain; cited from earlier work
# P. falciparum line K1AM = details: K1AM (163R,356V-PfCRT^K1); IC50 in line divided by IC50 in drug-sensitive reference strain; cited from earlier work
# [3] = test system: P. falciparum isolate HON; details: HON (PfCRT^3D7); IC50 in line divided by IC50 in drug-sensitive reference strain; cited from earlier work
# [4] = test system: P. falciparum line 106/1^72R,76I; details: 106/1^72R,76I (72R,76I-PfCRT^K1); IC50 in line divided by IC50 in drug-sensitive reference strain; cited from earlier work
# P. falciparum Dd2 = details: Dd2 (PfCRT^Dd2); IC50 in line divided by IC50 in drug-sensitive reference strain; cited from earlier work
# [5] = test system: P. falciparum line 106/1^76I; details: 106/1^76I (76I-PfCRT^K1); IC50 in line divided by IC50 in drug-sensitive reference strain; cited from earlier work
# PfCRT^Dd2 = experiment: [3H]drug transport into Xenopus oocytes expressing PfCRT; type: cell-based, Plasmodium falciparum; details: PfCRT^Dd2-expressing oocytes; [3H]CQ […], pH 5.5, 15 μM unlabeled CQ (S5 Fig)
# Procedure: (§1) For each treatment, 10 oocytes were transferred to a 5 mL polystyrene round bottom tube (Falcon) and washed twice with 3.5 mL of ND96 buffer, with the residual buffer removed by pipette. […] The assay was terminated by removing the reaction buffer with a pipette and washing the oocytes twice with 3.5 mL of ice-cold ND96 buffer. Each oocyte was transferred to a separate well of a white 96-well plate (NUNC or PerkinElmer), incubated overnight at room temperature in 30 μL of 10% SDS, and mixed on an orbital shaker the following day for approximately 5 min. The lysed oocyte was then combined with 150 μL of MicroScint-40 microscintillant (PerkinElmer), the plate covered with a TopSeal-A (PerkinElmer), and the radioactivity measured with a PerkinElmer MicroBeta^2 microplate liquid scintillation analyzer.
# [6] = test system: P. falciparum line 106/1^76T; details: 106/1^76T (PfCRT^K1); IC50 in line divided by IC50 in drug-sensitive reference strain; cited from earlier work
# [7] = test system: P. falciparum line 106/1^76I,352R; details: 106/1^76I,352R (76I,352R-PfCRT^K1); IC50 in line divided by IC50 in drug-sensitive reference strain; cited from earlier work
# 76I-PfCRT^K1 [8] = biological target: T1, 76I-PfCRT^K1 (Plasmodium falciparum, UniProt Q9N623, A220S/K76I/M74I/N326S/N75E/Q271E/R371I); experiment: Inhibition of PfCRT-mediated [3H]CQ transport in oocytes; type: cell-based; details: via 76I-PfCRT^K1 in oocytes
# Procedure: as §1
# The IC50 values presented in Fig 3A were determined in SigmaPlot by a least-squares fit of the equation y = y min + [(y max—y min)/(1 + ([inhibitor]/IC50)c] to the data, where y is PfCRT-mediated CQ transport, y min and y max are the minimum and maximum values of y, and c is a fitted constant. PfCRT-mediated CQ transport was calculated by subtracting the uptake measured in the control oocytes (oocytes expressing 76K PfCRT^K1) from that in oocytes expressing 76I-PfCRT^K1 or 76I,369F-PfCRT^K1.
# 76I-PfCRT^K1 [9] = biological target: T1, 76I-PfCRT^K1; experiment: Trans-stimulation of [3H]CQ uptake by microinjected compound in oocytes; type: cell-based
# Procedure: (§2) A subset of experiments measured the ability of unlabeled amantadine to trans-stimulate the uptake of [^3H]CQ into the oocyte. Immediately prior to the commencement of the experiment, the oocytes (days 3–4 post-injection of the cRNA) were microinjected with either amantadine (estimated intracellular concentrations of 1, 2.5, 5, 10, 15, or 20 mM) or a control treatment (buffer, spermine, or histidine; the estimated intracellular concentrations of spermine and histidine were 5 and 10 mM). The volume injected was 50 nL and the intracellular concentrations were calculated using previous estimates of the volume of stage V-VI oocytes (~400 nL [77]). The resealed oocytes were then incubated at 16–18°C in OR^2+ buffer for approximately 5 min and the influx of [^3H]CQ was measured as described above. […] The Michaelis-Menten equation was then fitted to the data to derive the kinetic parameters for the trans-stimulation of [^3H]CQ transport by amantadine.
# PfNT1 = PfNT1 (Plasmodium falciparum, UniProt Q8IDM6); experiment: as above; type: cell-based; details: oocytes expressing PfNT1, microinjected amantadine
# Procedure: as §2
# 76I,369F-PfCRT^K1 = 76I,369F-PfCRT^K1 (Plasmodium falciparum, UniProt Q9N623, A220S/K76I/M74I/N326S/N75E/Q271E/R371I/V369F); experiment: as above; type: cell-based
# Procedure: as §2
# noninjected oocytes = experiment: as above; type: cell-based, Xenopus laevis; details: microinjected amantadine
# Procedure: as §2
# 163R,356V-PfCRT^K1 = experiment: [3H]drug transport into Xenopus oocytes expressing PfCRT; type: cell-based, Plasmodium falciparum; details: oocytes expressing 163R,356V-PfCRT^K1; pH 5.0, 50 μM unlabeled amantadine
# Procedure: as §1
# 76K-PfCRT^K1 = experiment: as above; type: cell-based, Plasmodium falciparum; details: oocytes expressing 76K-PfCRT^K1; pH 5.0, 50 μM unlabeled amantadine
# Procedure: as §1
# T1 sequence (Q9N623 whole entry A220S/K76I/M74I/N326S/N75E/Q271E/R371I): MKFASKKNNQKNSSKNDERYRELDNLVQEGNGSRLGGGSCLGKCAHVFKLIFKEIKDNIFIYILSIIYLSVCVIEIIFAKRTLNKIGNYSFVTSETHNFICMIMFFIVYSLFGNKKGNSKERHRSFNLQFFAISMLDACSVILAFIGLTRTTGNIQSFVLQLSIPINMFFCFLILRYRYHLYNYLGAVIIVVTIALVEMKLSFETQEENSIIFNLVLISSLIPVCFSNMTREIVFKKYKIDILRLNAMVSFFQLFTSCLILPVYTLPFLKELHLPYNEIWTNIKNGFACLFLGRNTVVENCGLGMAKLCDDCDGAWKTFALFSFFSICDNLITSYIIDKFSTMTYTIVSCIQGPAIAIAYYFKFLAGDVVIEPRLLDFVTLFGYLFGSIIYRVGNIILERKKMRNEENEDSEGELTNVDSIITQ
# Sequence of 76I,369F-PfCRT^K1 (Q9N623 whole entry A220S/K76I/M74I/N326S/N75E/Q271E/R371I/V369F): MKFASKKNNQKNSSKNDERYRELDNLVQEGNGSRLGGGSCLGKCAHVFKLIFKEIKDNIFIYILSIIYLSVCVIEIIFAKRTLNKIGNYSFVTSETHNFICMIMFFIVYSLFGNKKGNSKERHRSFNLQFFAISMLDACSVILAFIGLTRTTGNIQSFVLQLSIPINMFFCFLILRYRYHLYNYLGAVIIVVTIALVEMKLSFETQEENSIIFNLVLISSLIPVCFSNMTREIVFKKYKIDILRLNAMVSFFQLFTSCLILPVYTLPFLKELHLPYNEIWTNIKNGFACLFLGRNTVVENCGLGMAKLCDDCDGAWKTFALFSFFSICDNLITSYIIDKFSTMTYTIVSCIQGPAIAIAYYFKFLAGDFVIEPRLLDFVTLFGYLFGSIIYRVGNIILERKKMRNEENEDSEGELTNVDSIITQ
# Sequence of PfNT1 (Q8IDM6 whole entry): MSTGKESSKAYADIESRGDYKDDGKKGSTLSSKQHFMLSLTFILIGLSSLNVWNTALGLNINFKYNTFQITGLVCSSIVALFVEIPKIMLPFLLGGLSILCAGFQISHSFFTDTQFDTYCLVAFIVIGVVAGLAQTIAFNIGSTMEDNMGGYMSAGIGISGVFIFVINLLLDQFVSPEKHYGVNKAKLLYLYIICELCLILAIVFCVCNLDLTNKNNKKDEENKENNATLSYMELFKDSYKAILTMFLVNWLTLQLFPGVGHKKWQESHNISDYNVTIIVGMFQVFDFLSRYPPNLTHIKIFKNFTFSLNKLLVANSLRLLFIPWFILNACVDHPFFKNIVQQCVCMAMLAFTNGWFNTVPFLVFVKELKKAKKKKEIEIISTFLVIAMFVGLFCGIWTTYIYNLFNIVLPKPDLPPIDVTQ
compound,measurement,setting,value
"CCN(CC)CCCC(C)Nc1ccnc2cc(Cl)ccc12 (stereo not drawn) [CQ, chloroquine]",Drug susceptibility (In vitro resistance index),[1],3.53
same,Drug susceptibility (In vitro resistance index),P. falciparum 106/1,1.10 ± 0.06
same,"CQ transport activity of PfCRT^K1, higher than that of PfCRT^Dd2",PfCRT^K1,~ 20%
same,Drug susceptibility (In vitro resistance index),[2],0.91 ± 0.09
same,Drug susceptibility (In vitro resistance index),P. falciparum line K1AM,0.95
same,Drug susceptibility (In vitro resistance index),[3],1
same,Drug susceptibility (In vitro resistance index),[4],1.13 ± 0.07
same,Drug susceptibility (In vitro resistance index),P. falciparum Dd2,11.78 ± 0.18
same,Drug susceptibility (In vitro resistance index),[5],15.66 ± 2.20
same,rate of CQ uptake,PfCRT^Dd2,24 ± 1.3 pmol per oocyte/h
same,Drug susceptibility (In vitro resistance index),[6],12.95 ± 0.95
same,Drug susceptibility (In vitro resistance index),[7],1.58 ± 0.02
NC12CC3CC(CC(C3)C1)C2 [amantadine],IC50,76I-PfCRT^K1 [8],186 ± 16 µM
same,Hill coefficient (trans-stimulation of [3H]CQ uptake),76I-PfCRT^K1 [9]; 76I-PfCRT^K1,1.49 ± 0.07
same,increase in the rate of CQ influx (trans-stimulation),76I-PfCRT^K1 [9]; oocytes expressing 76I-PfCRT^K1 microinjected with unlabeled amantadine,0.68 ± 0.04 pmol per oocyte/h
same,effect on accumulation of [3H]CQ (trans-stimulation),PfNT1,did not affect
same,Hill coefficient (trans-stimulation of [3H]CQ uptake),"76I,369F-PfCRT^K1; 76I,369F-PfCRT^K1",1.46 ± 0.05
same,increase in the rate of CQ influx (trans-stimulation),"76I,369F-PfCRT^K1; oocytes expressing 76I,369F-PfCRT^K1 microinjected with unlabeled amantadine",0.43 ± 0.02 pmol per oocyte/h
same,effect on accumulation of [3H]CQ (trans-stimulation),noninjected oocytes,did not affect
same,[3H]amantadine accumulation relative to background,"163R,356V-PfCRT^K1",failed to take up
same,[3H]amantadine accumulation relative to background,76K-PfCRT^K1,failed to take up
